According to US20240279239A1, “COMPOUNDS AND METHODS FOR MODULATING SPLICING” (REMIX THERAPEUTICS INC., priority 2020, published 2024):
Where a name gives a salt, the structure may show the parent alone. Read-outs that look alike come from different tables or passages of the source.

Tests used:
Type in all cases: cell-based
HTT [1] = test: RT-qPCR canonical junction panel assay, HTT; details: gene panel, read-out: HTT IC50 (decrease in CJ mRNA levels)
Experimental: (§1) Example 44: Exemplary splicing assay for monitoring expression levels of splice variants Compounds described herein were used to modulate RNA transcript abundance in cells. The expression of a target mRNA was measured by detecting the formation of an exon-exon junction in the canonical transcript (CJ). A compound mediated exon-inclusion event was detected by observing an increase in formation of a new junction with an alternative exon (AJ). Real-time qPCR assays were used to detect these splicing switches and interrogate the potency of various compounds towards different target genes. A high-throughput real time quantitative PCR (RT-qPCR) assay was developed to measure these two isoforms of the mRNA (CJ and AJ) for an exemplary gene, HTT, together with a control housekeeping gene, GAPDH or GUSB or PPIA, used for normalization. Briefly, the A673 or K562 cell line was treated with various compounds described herein (e.g., compounds of Formula (I)). After treatment, the levels of the HTT mRNA targets were determined from each sample of cell lysate by cDNA synthesis followed by qPCR.
(§2) The A673 cell line was cultured in DMEM with 10% FBS. Cells were diluted with full growth media and plated in a 96-well plate (15,000 cells in 100 µl media per well). The plate was incubated at 37° C. with 5% CO2 for 24 hours to allow cells to adhere. An 11-point 3-fold serial dilution of the compounds was made in DMSO then diluted in media in an intermediate plate. Compounds were transferred from the intermediate plate to the cell plate with the top dose at a final concentration of 10 uM in the well. Final DMSO concentration was kept at or below 0.25%. The cell plate was returned to the incubator at 37° C. with 5% CO2 for an additional 24 hours.
(§3) The K562 cell line was cultured in IMDM with 10% FBS. For K562, cells were diluted with full growth media and plated in either a 96-well plate (50,000 cells in 50 uL media per well) or a 384-well plate (8,000-40,000 cells in 45 uL media per well). An 11-point 3-fold serial dilution of the compounds were made in DMSO then diluted in media in an intermediate plate. Compound was transferred from the intermediate plate to the cell plate with the top dose at a final concentration of 10 uM in the well. Final DMSO concentration was kept at or below 0.25%. Final volume was 100 uL for 96-well plate and 50 uL for 384-well plate. The cell plate was then placed in an incubator at 37° C. with 5% CO2 for 24 hours.
(§4) The cells were then gently washed with 50 uL-100 uL cold PBS before proceeding to addition of lysis buffer. 30 uL-50 uL of room temperature lysis buffer with DNAse I (and optionally RNAsin) was added to each well. Cells were shaken/mixed thoroughly at room temperature for 5-10 minutes for lysis to take place and then 3 uL-5 uL of room temperature stop solution was added and wells were shaken/mixed again. After 2-5 minutes, the cell lysate plate was transferred to ice for RT-qPCR reaction setup. The lysates could also be frozen at ˜80° C. for later use.
(§5) In some cases, a direct lysis buffer was used. An appropriate volume of 3× lysis buffer (10 mM Tris, 150 mM NaCl, 1.5%-2.5% Igepal and 0.1-1 U/uL RNAsin, pH 7.4) was directly added to either K562 or A673 cells in media and mixed by pipetting 3 times. The plates were then incubated at room temperature with shaking/rocking for 20-50 minutes to allow for lysis to take place. After this time, the cell lysate plate was transferred to ice to set up for the RT-qPCR reactions. The lysates could also be frozen at −80° C. for later use.
(§6) To set up 10 uL RT-qPCR reactions, cell lysates were transferred to 384-well qPCR plates containing the master mix according to the table below. The plates were sealed, gently vortexed, and spun down before the run. The volumes were adjusted accordingly in some instances where the reaction was carried in 20 uL. The table below summarizes the components of the RT-qPCR reactions: […]

SMN2 = test: RT-qPCR canonical junction panel assay, SMN2; details: gene panel, read-out: SMN2 IC50 (decrease in CJ mRNA levels)
Experimental: as §1, §2, §3, §4, §5, §6

Target C = test: RT-qPCR canonical junction panel assay, Target C; details: gene panel, read-out: Target C IC50 (decrease in CJ mRNA levels)
Experimental: as §1, §2, §3, §4, §5, §6

HTT [2] = test: RT-qPCR splicing assay for HTT mRNA isoforms (canonical junction CJ and alternative junction AJ); details: A673 or K562 cell line, 24 hours treatment
Experimental: as §1, §2, §3, §4, §5, §6

[3] = decrease in CJ mRNA levels, read-out: HTT CJ AC50
[4] = increase in AJ mRNA, read-out: HTT AJ AC50

IC50 (HTT [1]) [nM]	IC50 (SMN2) [nM]	IC50 (Target C) [nM]	Compound	AC50 (HTT [2]; [3]) [nM]	AC50 (HTT [2]; [4]) [nM]
> 10000	> 10000	> 10000	Cc1cn2cc(-n3cnc4nc(N5CCN(C)CC5)sc4c3=O)cc(C(F)(F)F)c2n1 [Compound 230, 6-(2-methyl-8-(trifluoromethyl)imidazo[1,2-α]pyridin-6-yl)-2-(4-methylpiperazin-1-yl)thiazolo[4,5-d]pyrimidin-7(6H)-one]	> 10000	> 10000
1000 to 10000	1000 to 10000	1000 to 10000	Cc1cn2cc(-n3cnc4nc(N5CCN(C)CC5)sc4c3=O)cc(F)c2n1 [Compound 228, 6-(8-fluoro-2-methylimidazo[1,2-α]pyridin-6-yl)-2-(4-methylpiperazin-1-yl)thiazolo[4,5-d]pyrimidin-7(6H)-one]	1000 to 10000	1000 to 10000
< 100	< 100	100 to 1000	Cc1cn2cc(-c3cc4ncn(C5CCNCC5)c(=O)c4s3)cc(F)c2n1 [Compound 235, 6-(8-fluoro-2-methylimidazo[1,2-α]pyridin-6-yl)-3-(piperidin-4-yl)thieno[3,2-d]pyrimidin-4(3H)-one]	< 100	< 100
1000 to 10000	100 to 1000	1000 to 10000	Cc1cn2nc(-c3cc(=O)n4cc(N5CCNC6(CC6)C5)sc4n3)cc(C)c2n1 [Compound 211, 7-(2,8-dimethylimidazo[1,2-b]pyridazin-6-yl)-2-(4,7-diazaspiro[2.5]octan-7-yl)-5H-thiazolo[3,2-α]pyrimidin-5-one]	1000 to 10000	1000 to 10000
1000 to 10000	1000 to 10000		CN1CCN(c2nc3ncn(-c4ccc5nn(C)cc5c4)c(=O)c3s2)CC1 [Compound 182, 6-(2-methyl-2H-indazol-5-yl)-2-(4-methylpiperazin-1-yl)thiazolo[4,5-d]pyrimidin-7(6H)-one]	1000 to 10000	1000 to 10000
< 100	< 100	100 to 1000	Cc1cc(-c2nc3ncn(C4CCNCC4)c(=O)c3s2)cc2cn(C)nc12 [Compound 233, 2-(2,7-dimethyl-2H-indazol-5-yl)-6-(piperidin-4-yl)thiazolo[4,5-d]pyrimidin-7(6H)-one]	< 100	< 100
100 to 1000	< 100	1000 to 10000	Cc1cn2nc(-c3cc4ncn(C5CCNCC5)c(=O)c4s3)cc(C)c2n1 [Compound 238, 6-(2,8-dimethylimidazo[1,2-b]pyridazin-6-yl)-3-(piperidin-4-yl)thieno[3,2-d]pyrimidin-4(3H)-one]	100 to 1000	100 to 1000
100 to 1000	100 to 1000	100 to 1000	Cc1cn2cc(-n3cnc4nc(N5CCNCC5)sc4c3=O)cc(F)c2n1 [Compound 226, 6-(8-fluoro-2-methylimidazo[1,2-α]pyridin-6-yl)-2-(piperazin-1-yl)thiazolo[4,5-d]pyrimidin-7(6H)-one]	100 to 1000	100 to 1000
1000 to 10000	100 to 1000	> 10000	Cc1cn2cc(-c3nn4c(=O)cc(N5CCNCC5)nc4s3)cc(F)c2n1 [Compound 214, 2-(8-fluoro-2-methylimidazo[1,2-α]pyridin-6-yl)-7-(piperazin-1-yl)-5H-[1,3,4]thiadiazolo[3,2-α]pyrimidin-5-one]	1000 to 10000	> 10000
100 to 1000	1000 to 10000	1000 to 10000	Cc1cn2nc(-c3nc4ncn(C5CCNCC5)c(=O)c4s3)cc(C)c2n1 [Compound 231, 2-(2,8-dimethylimidazo[1,2-b]pyridazin-6-yl)-6-(piperidin-4-yl)thiazolo[4,5-d]pyrimidin-7(6H)-one]	100 to 1000	100 to 1000
100 to 1000	< 100	1000 to 10000	Cc1cc(-c2cc3ncn(C4CCN(C)CC4)c(=O)c3s2)cc2cn(C)nc12 [Compound 237, 6-(2,7-dimethyl-2H-indazol-5-yl)-3-(1-methylpiperidin-4-yl)thieno[3,2-d]pyrimidin-4(3H)-one]	100 to 1000	100 to 1000
1000 to 10000	1000 to 10000	1000 to 10000	Cc1cn2cc(-c3cn4c(=O)cc(N5CCNC6(CC6)C5)nc4s3)cc(F)c2n1 [Compound 208, 2-(8-fluoro-2-methylimidazo[1,2-α]pyridin-6-yl)-7-(4,7-diazaspiro[2.5]octan-7-yl)-5H-thiazolo[3,2-α]pyrimidin-5-one]	1000 to 10000	1000 to 10000
> 10000	100 to 1000	> 10000	Cc1cn2cc(-c3cc(=O)n4cc(N5CCNC6(CC6)C5)sc4n3)cc(F)c2n1 [Compound 207, 7-(8-fluoro-2-methylimidazo[1,2-α]pyridin-6-yl)-2-(4,7-diazaspiro[2.5]octan-7-yl)-5H-thiazolo[3,2-α]pyrimidin-5-one]	> 10000	> 10000
> 10000	1000 to 10000	> 10000	Cc1cn2cc(-c3cn4c(=O)cc(N5CCNCC5)nc4s3)cc(F)c2n1 [Compound 213, 2-(8-fluoro-2-methylimidazo[1,2-α]pyridin-6-yl)-7-(piperazin-1-yl)-5H-thiazolo[3,2-α]pyrimidin-5-one]	> 10000	> 10000
> 10000	1000 to 10000		Cc1cc(-c2cn3c(=O)cc(N4CCN(C)CC4)nc3s2)cc2cn(C)nc12 [Compound 183, 2-(2,7-dimethyl-2H-indazol-5-yl)-7-(4-methylpiperazin-1-yl)-5H-thiazolo[3,2-α]pyrimidin-5-one]	> 10000	> 10000
1000 to 10000	1000 to 10000	1000 to 10000	Cc1cn2cc(-c3nn4c(=O)cc(N5CCNC6(CC6)C5)nc4s3)cc(F)c2n1 [Compound 216, 2-(8-fluoro-2-methylimidazo[1,2-α]pyridin-6-yl)-7-(4,7-diazaspiro[2.5]octan-7-yl)-5H-[1,3,4]thiadiazolo[3,2-α]pyrimidin-5-one]	1000 to 10000	1000 to 10000
> 10000	1000 to 10000		Cc1cn2cc(-c3cn4c(=O)cc(N5CCN(C)CC5)nc4s3)cc(F)c2n1 [Compound 184]	> 10000	> 10000

Compound	IC50 (HTT [1]) [nM]	IC50 (SMN2) [nM]	IC50 (Target C) [nM]	AC50 (HTT [2]; [3]) [nM]	AC50 (HTT [2]; [4]) [nM]
Cc1cn2nc(-c3cc(=O)n4cc(N(C)C5CC(C)(C)NC(C)(C)C5)sc4n3)cc(C)c2n1 [Compound 205, 7-(2,8-dimethylimidazo[1,2-b]pyridazin-6-yl)-2-(methyl(2,2,6,6-tetramethylpiperidin-4-yl)amino)-5H-thiazolo[3,2-α]pyrimidin-5-one]	1000 to 10000	1000 to 10000	1000 to 10000	1000 to 10000	1000 to 10000
Cc1cn2cc(-n3cnc4nc(N(C)C5CC(C)(C)NC(C)(C)C5)sc4c3=O)cc(F)c2n1 [Compound 227, 6-(8-fluoro-2-methylimidazo[1,2-α]pyridin-6-yl)-2-(methyl(2,2,6,6-tetramethylpiperidin-4-yl)amino)thiazolo[4,5-d]pyrimidin-7(6H)-one, formate]	> 10000	> 10000	> 10000	> 10000	> 10000
